Data: patent US9586999B2, “Methods and compositions related to improving properties of pharmacological agents targeting nervous system” (University of Utah Research Foundation, priority 2006, dated 2017)
“Also recorded” adds a separate entry of the source.

Assays:
mechanical allodynia = experiment: Sciatic nerve ligation model of chronic pain, mechanical allodynia (Von Frey); assay type: in vivo, rat; details: 2 mg/kg i.p.
Description: Just prior to surgery, rats are treated subcutaneously with 0.1 to 0.5 mg/kg of the long acting opiate buprenorphine. Rats are then anesthetized with pentobarbital and the depth of anesthesia monitored by their response to a tail pinch and observation of the depth of respiration. Sterile technique was used throughout the surgery.
The upper thigh of each rat was shaved and wiped off with ethanol and betadine. A small incision was made in the skin and through the underlying muscle of the upper thigh until the sciatic nerve was exposed. The nerve was then separated from the surrounding connective tissue and slightly elevated by a pair of fine, curved forceps. Approximately ⅓ to ½ of the nerve was then tied off by passing a needle and nylon suture (7.0) through the nerve. […] Rats were closely monitored daily for the development of infection or untoward effects of the surgery.
After an appropriate time for recovery (e.g., 7-14 days) the animals were tested for the development of mechanical allodynia (pain response to a non-noxious stimulus). […] After a 30-60 minute acclimation period, a baseline mechanical sensitivity was determined. […] This procedure was repeated until a 50% threshold for withdrawal could be determined.

6 Hz limbic seizures = experiment: 6 Hz limbic (psychomotor) seizure test; assay type: in vivo, mouse
Excerpt: Mice not displaying limbic seizures were considered protected.
As mentioned above, the 6 Hz seizure becomes more resistant to block by antiepileptic drugs as the current is increased from 22 mA to 44 mA.

sound-induced seizures = experiment: Frings audiogenic seizure-susceptible mouse model of reflex epilepsy; assay type: in vivo; details: i.p., 4 mg/kg for time course, dose-response 1 h after dosing
Excerpt: (§1) The ability of individual modified peptides to prevent seizures induced by sound in the AGS-susceptible Frings mouse model can be assessed at the time of peak effect (White et al., 1992). For this test, individual mice are placed into a plexiglass cylinder (diameter, 15 cm; height, 18 cm) fitted with an audio transducer (Model AS-ZC; FET Research and Development, Salt Lake City, Utah), and exposed to a sound stimulus of 110 decibels (11 KHz) delivered for 20 seconds. Sound-induced seizures are characterized by wild running followed by loss of righting reflex with forelimb and hindlimb tonic extension. Mice not displaying hindlimb tonic extension are considered protected.
The two modified galanin analogs (GAL-BBB1 and GAL-BBB2) were administered i.p. to a group of Frings audiogenic seizure susceptible mice in a dose of 4 mg/kg. At various times after administration (i.e., 15, 30, 60, 120, and 240 min) each mouse was placed into a cylindrical test chamber fitted with an audio transducer and challenged with a high-intensity sound stimulus (110 dB, 11 KHz for 20 sec). Animals not displaying tonic hind-limb extension were considered protected. […] In a subsequent study, anticonvulsant efficacy was quantitated at the time to peak effect (i.e., 1 h) in a dose-response study.
as §1, with “analogs” for “peptides”
At various times after administration (i.e., 15, 30, 60, 120, and 240 min) each mouse was placed into a cylindrical test chamber fitted with an audio transducer and challenged with a high-intensity sound stimulus (110 dB, 11 KHz for 20 sec).

Substance: Sar-Trp-Thr-Leu-Asn-Ser-Ala-Gly-Tyr-Leu-Leu-Gly-Pro-Lys-Lys-(Lys-palm)-Lys-NH2 [NAX 5055]
- threshold for mechanical allodynia (mechanical allodynia; 30 min to 6 h): time-dependent increase in the threshold for mechanical allodynia
- potency relative to morphine (2 mg/kg) and gabapentin (40 mg/kg) (mechanical allodynia; listed as GAL-BBB2): equi-potent to morphine; also recorded: several fold more potent that gabapentin
- activity in pharmaco-resistant seizure model (6 Hz limbic seizures; 4 mg/kg): active
- potency and efficacy relative to native peptide fragment (6 Hz limbic seizures; 6 Hz (32 mA), i.c.v.): more potent and efficacious than the native peptide fragment GAL(1-16)
- % Protection at 2 hours afforded by a dose of 4 mg/kg, i.p. (6 Hz limbic seizures; 2 h, 4 mg/kg i.p.): 100%
- % Protection at 4 hours afforded by a dose of 4 mg/kg, i.p. (6 Hz limbic seizures; 4 h, 4 mg/kg i.p.): 0%
- ED50 in the 6 Hz limbic seizure model (in Table 14 in parentheses) (6 Hz limbic seizures; i.p., SAR analogs): (0.8 mg/kg)
- ED50 following i.c.v. administration (6 Hz limbic seizures; intracerebroventricular, 6 Hz (32 mA)): 0.07 nmol
- anticonvulsant activity following subcutaneous administration (6 Hz limbic seizures; s.c., 32 mA, 60 min, CF-1 mice): preserved; also recorded: retained
- anticonvulsant effect against sound-induced seizures (sound-induced seizures; 4 mg/kg): effective; also recorded: time-dependent anticonvulsant activity; also recorded: dose-dependent protection
- anticonvulsant effect against sound-induced seizures (sound-induced seizures; listed as GAL-BBB2, 4 mg/kg): dose-dependent effect
- anticonvulsant effect against sound-induced seizures (sound-induced seizures; listed as Gal BBB-2, 4 mg/kg): time (inset) and dose-dependent protection
